Reference: patent US8445484B2, “Bicyclic peptidomimetic inhibitors of aspartyl-proteases for the treatment of infectious diseases” (Istituto Superiore di Sanita', priority 2008, dated 2013)
Square brackets hold non-standard residues; d marks the D form. Peptide text beside a SMILES is read from it. * marks the point of attachment. Sta = CC(C)C[C@H](N)[C@@H](O)CC(=O)O; Isovaleryl = CC(C)CC(=O)*

What was measured:
SAP2 = SAP2 (Candida albicans, UniProt P0DJ06); type: biochemical; conditions: 10 μm compound; relative to pepstatin; pH 3.2, 30 min at 37° C.
Chain of SAP2 (P0DJ06 57-398): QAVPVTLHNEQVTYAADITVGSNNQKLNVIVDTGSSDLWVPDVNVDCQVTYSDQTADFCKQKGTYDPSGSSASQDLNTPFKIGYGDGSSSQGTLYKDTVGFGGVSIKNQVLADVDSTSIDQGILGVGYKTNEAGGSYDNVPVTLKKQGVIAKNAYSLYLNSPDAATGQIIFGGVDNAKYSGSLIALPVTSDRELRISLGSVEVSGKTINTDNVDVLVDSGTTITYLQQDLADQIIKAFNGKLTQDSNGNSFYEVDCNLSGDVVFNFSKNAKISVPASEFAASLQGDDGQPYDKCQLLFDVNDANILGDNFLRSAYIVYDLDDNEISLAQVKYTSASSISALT
Protocol: Spectrophotometric method: protease activity of the various compounds of formula (I) was measured by a spectrophotometric assay with respect to pepstatin activity at the same concentration: each assay contained 50 μl of sample in 0.4 ml of 1% (w/v) BSA in 50 mM sodium citrate pH 3.2 and 50 μl of protease solution (1 μg/ml) After 30 min at 37° C. 1 ml 10% (w/v) trichloroacetic acid was added. The tubes were stored in ice for 30 min, and then centrifuged (3000 g) for 10 min. The absorbance of the supernatant was read at 280 nm. Control: 1% BSA in citrate buffer. One unit of the enzyme catalysed a ΔA280 of 1 min^−1. With the pure protease the assay was proportional to enzyme concentration over the range ΔA280 0.1-0.4 and a limit detection of 1 μg (De Bernardis F., Sullivan P. A., Cassone A. Medical Mycology 2001, 39, 303).

C. albicans SA40 = assay: Experimental rat vaginal infection, C. albicans SA40 clearance; type: in vivo, Candida albicans; conditions: for Candida SA40 cells in vaginal fluid (CFU/ml): oophorectomized Wistar rats, intravaginal treatment 1, 24, 48 hrs after challenge
Protocol: (§1) Experimental vaginal infection: for the experimental vaginal infection, a previously described rat vaginal model was adopted (De Bernardis, F.; Boccanera, M.; Adriani, D.; Spreghini, E.; Santoni, G.; Cassone, A. Infect. Immun., 1997, 65, 3399).
(§2) In brief, oophorectomized female Wistar rats (80-100 g; Charles River Calco, Italy) were injected subcutaneously with 0.5 mg of estradiol benzoate (Estradiolo, Amsa Farmaceutici srl, Rome, Italy). Six days after the first estradiol the animals were inoculated intravaginally with […] yeast cells in 0.1 ml of saline solution of each C. albicans strain tested. The inoculum was dispensed into the vaginal cavity through a syringe equipped with a multipurpose calibrated tip (Combitip; PBI, Milan, Italy). The yeast cells had been previously grown in YPD broth (yeast extract 1%; peptone 2%; dextrose 2%) at 28° C. on a gyrator shaker (200 rpm), harvested by centrifugation (1500 g), washed, counted in a hemocytometer, and suspended to the required number in saline solution. The number of cells in the vaginal fluid was counted by culturing 100 μl samples (using a calibrated plastic loop, Disponoic, PBI, Milan, Italy) taken from each animals, on Sabouraud agar containing chloramphenicol (50 μg/ml) as previously described. The rat was considered infected when at least 1 CFU was present in the vaginal lavage, i.e. a count of […].
(§3) Positive (pepstatin 10 μg; fluconazole 10 μg and negative (sterile saline solution) were similarly administered.

C. albicans AIDS68 = assay: Experimental rat vaginal infection, C. albicans AIDS68 (pharmacoresistant) clearance; type: in vivo, Candida albicans; conditions: for Candida AIDS68 cells in vaginal fluid (CFU/ml): oophorectomized Wistar rats, intravaginal treatment 1, 24, 48 hrs after challenge
Protocol: as §1, §2, §3

COC(=O)[C@H](CC(C)C)N1C[C@H]2O[C@H](C(=O)N3CCCCC3)[C@@H](O2)C1=O [Cpd 1, (2S)-4-Methyl-2-[(1R,5S,7S)-2-oxo-7-(piperidine-1-carbonyl)-6,8-dioxa-3-aza-bicyclo[3.2.1]oct-3-yl]-pentanoic acid methyl ester]
1% percent of inhibition with respect to pepstatin at the same concentration (SAP2): 37%

COC(=O)[C@H](CC(C)C)N1C[C@H]2O[C@H](C(=O)N3CCOCC3)[C@@H](O2)C1=O [Cpd 2, 4′-Methyl-(2′S)-2′-[(1R,5S,7S)-7-(morpholine-4-carbonyl)-2-oxo-6,8-dioxa-3-aza-bicyclo[3.2.1]oct-3-yl]-pentanoic acid methyl ester]
1% percent of inhibition with respect to pepstatin at the same concentration (SAP2): 32%

CCCCNC(=O)CC(O)CNC(=O)[C@H](CC(C)C)N1C[C@H]2O[C@H](C(=O)N3CCCCC3)[C@@H](O2)C1=O (stereo partly drawn) [Cpd 3, (2S)-4-Methyl-2-[(1R,5S,7S)-2-oxo-7-(piperidine-1-carbonyl)-6,8-dioxa-3-aza-bicyclo[3.2.1]oct-3-yl]-pentanoic acid (3-butylcarbamoyl-2-hydroxy-propyl)-amide]
1% percent of inhibition with respect to pepstatin at the same concentration (SAP2): 22%

O=C(NCCO)C1OC2CN(Cc3ccccc3)C(=O)C1O2 (stereo not shown) [Cpd 4]
1% percent of inhibition with respect to pepstatin at the same concentration (SAP2): 36%

CC(C)CC(CO)NC(=O)C1OC2CN(Cc3ccccc3)C(=O)C1O2 (stereo not shown) [Cpd 5]
1% percent of inhibition with respect to pepstatin at the same concentration (SAP2): 41%

O=C(C1OC2CN(Cc3ccccc3)C(=O)C1O2)N1CCCCC1 (stereo not shown) [Cpd 6]
1% percent of inhibition with respect to pepstatin at the same concentration (SAP2): 42%
differences between treated and untreated control (C. albicans SA40; SA40, starting day 1, P<0.01, Mann-withney U test): statistically significant
Candida SA40 cells in vaginal fluid (CFU/ml) (C. albicans SA40; day 0): >100 ×1000
Candida SA40 cells in vaginal fluid (CFU/ml) (C. albicans SA40; day 1): 70 ± 1.3 ×1000
Candida SA40 cells in vaginal fluid (CFU/ml) (C. albicans SA40; day 2): 57.6 ± 1.4 ×1000
Candida SA40 cells in vaginal fluid (CFU/ml) (C. albicans SA40; day 5): 39.2 ± 3 ×1000
Candida SA40 cells in vaginal fluid (CFU/ml) (C. albicans SA40; day 7): 30.6 ± 1.8 ×1000
Candida SA40 cells in vaginal fluid (CFU/ml) (C. albicans SA40; day 14): 14.4 ± 1.6 ×1000
Candida SA40 cells in vaginal fluid (CFU/ml) (C. albicans SA40; day 21): 8 ± 1.5 ×1000
Candida SA40 cells in vaginal fluid (CFU/ml) (C. albicans SA40; day 28): 1.2 ± 0.7 ×1000
differences between treated and untreated control (C. albicans AIDS68; AIDS68, starting day 1, P<0.01, Mann-withney U test): statistically significant
Candida AIDS68 cells in vaginal fluid (CFU/ml) (C. albicans AIDS68; day 0): >100 ± 0 ×1000
Candida AIDS68 cells in vaginal fluid (CFU/ml) (C. albicans AIDS68; day 1): 71.8 ± 1.3 ×1000
Candida AIDS68 cells in vaginal fluid (CFU/ml) (C. albicans AIDS68; day 2): 62.6 ± 1.5 ×1000
Candida AIDS68 cells in vaginal fluid (CFU/ml) (C. albicans AIDS68; day 5): 40.6 ± 1.4 ×1000
Candida AIDS68 cells in vaginal fluid (CFU/ml) (C. albicans AIDS68; day 7): 23.2 ± 1.4 ×1000
Candida AIDS68 cells in vaginal fluid (CFU/ml) (C. albicans AIDS68; day 14): 12.8 ± 1.2 ×1000
Candida AIDS68 cells in vaginal fluid (CFU/ml) (C. albicans AIDS68; day 21): 3.4 ± 1.7 ×1000
Candida AIDS68 cells in vaginal fluid (CFU/ml) (C. albicans AIDS68; day 28): 0 ± 0 ×1000

O=C(C1OC2CN(Cc3ccccc3)C(=O)C1O2)N1CCN(CCO)CC1 (stereo not shown) [Cpd 7]
1% percent of inhibition with respect to pepstatin at the same concentration (SAP2): 34%

O=C(C1OC2CN(Cc3ccccc3)C(=O)C1O2)N1CCOCC1 (stereo not shown) [Cpd 8]
1% percent of inhibition with respect to pepstatin at the same concentration (SAP2): 31%

CCOC(=O)N1CCN(C(=O)C2OC3CN(Cc4ccccc4)C(=O)C2O3)CC1 (stereo not shown) [Cpd 9]
1% percent of inhibition with respect to pepstatin at the same concentration (SAP2): 37%

O=C(NCCCO)C1OC2CN(Cc3ccccc3)C(=O)C1O2 (stereo not shown) [Cpd 10]
1% percent of inhibition with respect to pepstatin at the same concentration (SAP2): 12%

O=C(NC(CO)c1ccccc1)C1OC2CN(Cc3ccccc3)C(=O)C1O2 (stereo not shown) [Cpd 13]
1% percent of inhibition with respect to pepstatin at the same concentration (SAP2): 16%

O=C(NC(CO)Cc1ccccc1)C1OC2CN(Cc3ccccc3)C(=O)C1O2 (stereo not shown) [Cpd 14]
1% percent of inhibition with respect to pepstatin at the same concentration (SAP2): 19%

O=C(NC(CO)Cc1ccccc1)C1OC2CN(Cc3ccccc3)C(=O)C1O2 (stereo not shown) [Cpd 15]
1% percent of inhibition with respect to pepstatin at the same concentration (SAP2): 15%

CCCCNC(=O)C1OC2OC1C(=O)N(Cc1ccccc1)C2Cc1ccccc1 (stereo not shown) [Cpd 16]
1% percent of inhibition with respect to pepstatin at the same concentration (SAP2): 17%

CCCCCCNC(=O)C1OC2OC1C(=O)N(Cc1ccccc1)C2Cc1ccccc1 (stereo not shown) [Cpd 17]
1% percent of inhibition with respect to pepstatin at the same concentration (SAP2): 21%

O=C(NCC(F)(F)F)C1OC2OC1C(=O)N(Cc1ccccc1)C2Cc1ccccc1 (stereo not shown) [Cpd 18]
1% percent of inhibition with respect to pepstatin at the same concentration (SAP2): 17%

O=C(C1OC2OC1C(=O)N(Cc1ccccc1)C2Cc1ccccc1)N1CCOCC1 (stereo not shown) [Cpd 19]
1% percent of inhibition with respect to pepstatin at the same concentration (SAP2): 25%

O=C(C1OC2OC1C(=O)N(Cc1ccccc1)C2Cc1ccccc1)N1CCSCC1 (stereo not shown) [Cpd 20]
1% percent of inhibition with respect to pepstatin at the same concentration (SAP2): 28%

O=C(C1OC2OC1C(=O)N(Cc1ccccc1)C2Cc1ccccc1)N1CCN(CCO)CC1 (stereo not shown) [Cpd 21]
1% percent of inhibition with respect to pepstatin at the same concentration (SAP2): 31%

OC(Cn1cncn1)(Cn1cncn1)c1ccc(F)cc1F [fluconazole]
Candida AIDS68 cells in vaginal fluid (CFU/ml) (C. albicans AIDS68; day 0): >100 ± 0 ×1000
Candida AIDS68 cells in vaginal fluid (CFU/ml) (C. albicans AIDS68; day 1): 100 ± 0 ×1000
Candida AIDS68 cells in vaginal fluid (CFU/ml) (C. albicans AIDS68; day 2): 93 ± 4.3 ×1000
Candida AIDS68 cells in vaginal fluid (CFU/ml) (C. albicans AIDS68; day 5): 61 ± 2.5 ×1000
Candida AIDS68 cells in vaginal fluid (CFU/ml) (C. albicans AIDS68; day 7): 44 ± 2.9 ×1000
Candida AIDS68 cells in vaginal fluid (CFU/ml) (C. albicans AIDS68; day 14): 18.7 ± 3.8 ×1000
Candida AIDS68 cells in vaginal fluid (CFU/ml) (C. albicans AIDS68; day 21): 11.7 ± 0.7 ×1000
Candida AIDS68 cells in vaginal fluid (CFU/ml) (C. albicans AIDS68; day 28): 0 ± 0 ×1000

CC(C)CC(=O)N[C@H](C(=O)N[C@H](C(=O)N[C@@H](CC(C)C)[C@@H](O)CC(=O)N[C@@H](C)C(=O)N[C@@H](CC(C)C)[C@@H](O)CC(=O)O)C(C)C)C(C)C [pepstatin, reference compound] (Isovaleryl-VV[Sta]A[Sta]-OH)
Candida SA40 cells in vaginal fluid (CFU/ml) (C. albicans SA40; day 0): >100 ×1000
Candida SA40 cells in vaginal fluid (CFU/ml) (C. albicans SA40; day 1): 56.8 ± 2 ×1000
Candida SA40 cells in vaginal fluid (CFU/ml) (C. albicans SA40; day 2): 51 ± 1.2 ×1000
Candida SA40 cells in vaginal fluid (CFU/ml) (C. albicans SA40; day 5): 32.4 ± 2.5 ×1000
Candida SA40 cells in vaginal fluid (CFU/ml) (C. albicans SA40; day 7): 28 ± 1.5 ×1000
Candida SA40 cells in vaginal fluid (CFU/ml) (C. albicans SA40; day 14): 9.4 ± 1.4 ×1000
Candida SA40 cells in vaginal fluid (CFU/ml) (C. albicans SA40; day 21): 5 ± 1.3 ×1000
Candida SA40 cells in vaginal fluid (CFU/ml) (C. albicans SA40; day 28): 0 ×1000
Candida AIDS68 cells in vaginal fluid (CFU/ml) (C. albicans AIDS68; day 0): >100 ± 0 ×1000
Candida AIDS68 cells in vaginal fluid (CFU/ml) (C. albicans AIDS68; day 1): 58.4 ± 1.0 ×1000
Candida AIDS68 cells in vaginal fluid (CFU/ml) (C. albicans AIDS68; day 2): 52.0 ± 1.3 ×1000
Candida AIDS68 cells in vaginal fluid (CFU/ml) (C. albicans AIDS68; day 5): 37.2 ± 1.6 ×1000
Candida AIDS68 cells in vaginal fluid (CFU/ml) (C. albicans AIDS68; day 7): 30.0 ± 1.2 ×1000
Candida AIDS68 cells in vaginal fluid (CFU/ml) (C. albicans AIDS68; day 14): 19.8 ± 0.8 ×1000
Candida AIDS68 cells in vaginal fluid (CFU/ml) (C. albicans AIDS68; day 21): 3.8 ± 1.9 ×1000
Candida AIDS68 cells in vaginal fluid (CFU/ml) (C. albicans AIDS68; day 28): 0 ± 0 ×1000
